{"source": "patent US12070503B2", "about": "“Transdermal carrier” (priority 2014, dated 2024)", "origin": "cited, not measured here", "key": {"[1]": {"settings": "difficult to measure, considered generally"}, "HSV-infected cells": {"test_system": "HSV-infected cells", "settings": "compared with alternatives such as Abreva"}, "hair follicles": {"test_system": "hair follicles", "settings": "concentrations of 2% and 5%; published studies"}}, "data": [{"compound": "C[C@H](CCC(=O)O)[C@H]1CC[C@H]2[C@@H]3CC[C@@H]4C[C@H](O)CC[C@]4(C)[C@H]3C[C@H](O)[C@]12C", "note": "[DCA, deoxycholic acid]", "values": [{"measurement": "half-life", "setting": "[1]", "result": "less than 30 minutes"}]}, {"compound": "Nc1nc2c(ncn2CCC(CO)CO)c(=O)[nH]1", "note": "[Penciclovir, penciclovir]", "values": [{"measurement": "effectiveness against HSV-infected cells", "setting": "HSV-infected cells", "result": "more effective"}]}, {"compound": "Nc1cc(N2CCCCC2)nc(N)[n+]1[O-]", "note": "[minoxidil]", "values": [{"measurement": "treatment time before evidence of hair growth was demonstrated", "setting": "hair follicles", "result": "> 8", "unit": "months"}]}]}
